Data on three molecules can be found in US10203330B2, “Methods and materials for identifying and treating mammals having lung adenocarcinoma characterized by neuroendocrine differentiation” (Mayo Foundation for Medical Education and Research, priority 2013, dated 2019).

Assay type in all cases: cell-based
Series [1] concerns A549 cells and A549-ASCL1 cells. Put plainly: Clonogenic number of A549 and A549-ASCL1 cells after cisplatin treatment. As to conditions: ASCL1 over-expressing cells versus cells not expressing ASCL1; 0, 3 or 9 μM cisplatin for 14 days, FIG. 15.
Series [2] has as its system ASCL1. Kind of series: ASCL1 knock down in HCC1833 cells, ASCL1 and RET expression. To be noted: HCC1833 cells transfected with the construct, FIG. 13 left. The source says: Two cell lines are used to confirm the effectiveness of drugs for treating lung adenocarcinoma characterized by neuroendocrine differentiation. The first is the HCC1833 cell line, which was derived from lung AD and has high expression levels of ASCL1 and RET. The second in the A549 cell line which has low endogenous expression of ASCL1 and is stably transfected with ASCL1 (A549-As^+). A549-As^+ captures salient features of ASCL1^+ lung AD from patients, including increased expression of RET. HCC1833 are stably transfected with ASCL1 siRNA to knock down ASCL1 and produce a HCC1833-AsKD cell line. Lowering ASCL1 expression leads to low levels of RET expression.
(§1) The HCC1833 adenocarcinoma cell line expressed high endogenous levels of ASCL1 and RET (FIG. 13, left). […] In addition, STAT3 expression (in JAK/STAT3 pathway) went down.

The test system of series [3] is HCC1833 cells. Kind of series: Filling the gap scratch assay. To be noted: HCC1833 cells transfected with ASCL1 shRNA versus wild-type and control vector cells, day 3, FIG. 14; listed as ASCL1-sh2.
Text: FIG. 14 contains photographs of cells from a filling the gap scratch assay (see, e.g., Liang et al., Nature Protocols, 2:329-333 (2007)).
as §1

“Also recorded” adds a separate entry of the source.

As to `N.N.[Cl][Pt][Cl]` [cisplatin], the “remaining clonogenic potential after cisplatin treatment” value in series [1] was “higher than in cells that did not express ASCL1”.
As to “sh2: a small interfering RNA construct that includes: CAACCGCGTCAAGTTGGTCAA (SEQ ID NO:2) (listed as DNA, chemistry not given here)”, in series [2], the ASCL1 expression result is “reduced ASCL1 expression” and the RET expression result was “reduced”. In addition, the “ability to fill the gap (migration capacity)” value in series [3] is reported as “much slower ability to filling the gap; also recorded: did not fill as much of the gap”.
Regarding “sh1: a small interfering RNA construct that includes: GCCAACAAGAAGATGAGTAAG (SEQ ID NO: 1) (listed as DNA, chemistry not given here)”, in series [2], the ASCL1 expression result is on record as “reduced ASCL1 expression” and the RET expression result is recorded as “reduced”.
